Assay results taken from patent US20220324835A1 (Nurix Therapeutics, Inc., priority 2018, published 2022).

Experiments:
T-cell [1] = test: IL-2 secretion from T-cells stimulated with anti-CD3 antibody alone (Biological Example 2); assay type: cell-based, human; conditions: T-cell, read-out: IL-2 secretion Anti-CD3 stimulation; for fold induction at 1 µM: 1 μM Cbl-b inhibitor; for fold induction at 8 µM: 8 μM Cbl-b inhibitor
T-cell [2] = test: CD25 cell surface staining on T-cells co-stimulated with anti-CD3 and anti-CD28 antibody (Biological Example 2); assay type: cell-based, human; conditions: Homo sapiens, T-cell, read-out: CD25 staining Anti-CD3/Anti-CD28 stimulation; for fold induction at 0.3 µM: 0.3 μM Cbl-b inhibitor; for fold induction at 1 µM: 1 μM Cbl-b inhibitor; for fold induction at 4 µM: 4 μM Cbl-b inhibitor
In short: (§1)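 No assay protocol given; T-cells stimulated with anti-CD3 alone or anti-CD3 plus anti-CD28, with or without Cbl-b inhibitor. Activation read as IL-2 secretion or CD25 surface staining, expressed as fold over baseline from uninhibited cells […].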

Cbl-b [3] = molecular target: T1, Cbl-b (Homo sapiens, UniProt Q13191); test: Cbl-b activity assay (Cbl-b inhibition assay), TR-FRET of Cbl-b interaction with UbcH5B-Ub; assay type: biochemical; conditions: assay buffer with 100 mM NaCl, 60 nM Src kinase; read-out: Cbl-b activity IC50
T1 sequence (Q13191 36-427): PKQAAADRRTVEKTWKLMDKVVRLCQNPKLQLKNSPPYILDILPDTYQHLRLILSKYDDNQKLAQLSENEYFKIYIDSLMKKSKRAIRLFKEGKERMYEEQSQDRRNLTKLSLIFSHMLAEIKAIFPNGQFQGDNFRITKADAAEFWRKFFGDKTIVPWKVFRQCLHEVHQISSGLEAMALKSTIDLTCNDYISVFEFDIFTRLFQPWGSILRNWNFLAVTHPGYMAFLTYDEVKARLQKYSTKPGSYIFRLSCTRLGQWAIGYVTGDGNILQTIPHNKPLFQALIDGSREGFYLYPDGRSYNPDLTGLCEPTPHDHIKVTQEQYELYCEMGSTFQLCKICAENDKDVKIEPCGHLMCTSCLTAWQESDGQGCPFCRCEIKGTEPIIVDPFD
In short: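 TR-FRET readout of Cbl-b binding to Bodipy-fluorescein N-terminally labeled Ub conjugated to UbcH5B C85K, measured with compound present. After compound incubation, 60 nM Src kinase with 1 mM ATP and 5 mM MgCl2 (final) was added for 1.5 h, then a further 1 h incubation; asterisked values used 50 mM NaCl buffer and 30 nM Src.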

T-cell [4] = test: IL-2 secretion from T-cells co-stimulated with anti-CD3 and anti-CD28 antibody (Biological Example 2); assay type: cell-based, human; conditions: Homo sapiens, T-cell, read-out: IL-2 secretion Anti-CD3/Anti-CD28 stimulation; for fold induction at 0.3 µM: 0.3 μM Cbl-b inhibitor; for fold induction at 1 µM: 1 μM Cbl-b inhibitor; for fold induction at 4 µM: 4 μM Cbl-b inhibitor
In short: as §1

T-cell [5] = test: CD25 cell surface staining on T-cells stimulated with anti-CD3 antibody alone (Biological Example 2); assay type: cell-based, human; conditions: T-cell, read-out: CD25 staining Anti-CD3 stimulation; for fold induction at 1 µM: 1 μM Cbl-b inhibitor; for fold induction at 8 µM: 8 μM Cbl-b inhibitor
Cbl-b [6] = molecular target: T1, Cbl-b; test: Cbl-b inhibition assay (Cbl-b activity assay, FRET, Biological Example 1; 100 mM NaCl, 60 nM Src kinase); assay type: biochemical; conditions: upper bound stated in text lists; read-out: IC50 values in the Cbl-b inhibition assay of Biological Example 1
In short: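 Here, the E2 UbcH5B, irreversibly linked to Bodipy-fluorescein ubiquitin, binds Cbl-b once Src kinase phosphorylates it; Cbl-b carries an N-terminal biotinylated Avi-tag captured by streptavidin-terbium. An absent FRET signal indicates inhibition.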

[7] = Homo sapiens, fold change over baseline (anti-CD3/anti-CD28 stimulated T-cells without inhibitor)
[8] = fold change over baseline (anti-CD3/anti-CD28 stimulated T-cells without inhibitor)
[9] = fold change over baseline, primary human total T-cells

Compound	fold induction at 1 µM (T-cell [1]; [7])	fold induction at 0.3 µM (T-cell [2]; [8])	fold induction at 1 µM (T-cell [2]; [8])	IC50 (Cbl-b [3])	fold induction at 0.3 µM (T-cell [4]; [8])	fold induction at 1 µM (T-cell [4]; [8])	fold induction at 1 µM (T-cell [5]; [7])	IC50 (Cbl-b [6])	fold induction at 1 µM (T-cell [1]; [9])	fold induction at 8 µM (T-cell [1]; [9])	fold induction at 0.3 µM (T-cell [2]; [9])	fold induction at 1 µM (T-cell [2]; [9])	fold induction at 4 µM (T-cell [2]; [9])	fold induction at 0.3 µM (T-cell [4]; [9])	fold induction at 1 µM (T-cell [4]; [9])	fold induction at 4 µM (T-cell [4]; [9])	fold induction at 1 µM (T-cell [5]; [9])	fold induction at 8 µM (T-cell [5]; [9])
CC1C(C(F)(F)F)CCN1Cc1cc2c(c(C(F)(F)F)c1)CN(c1cccc(C3(Cc4nncn4C)COC3)c1)C2=O (stereo not drawn) [Example 588, 6-((2-Methyl-3-(trifluoromethyl)pyrrolidin-1-yl)methyl)-2-(3-(3-((4-methyl-4H-1,2,4-triazol-3-yl)methyl)oxetan-3-yl)phenyl)-4-(trifluoromethyl)isoindolin-1-one]	0.051 to 0.1	1.01 to 1.3	1.31 to 1.5	< 100 nM	5 to 7.5	> 7.5	> 1	≤ 100 nM										
C[C@H](Cc1nncn1C)c1cccc(NC(=O)c2cc3cc(N4CCN(C)C(=O)C4)ccc3cn2)c1 [Compound 209, (R)-6-(4-methyl-3-oxopiperazin-1-yl)-N-(3-(1-(4-methyl-4H-1,2,4-triazol-3-yl)propan-2-yl)phenyl)isoquinoline-3-carboxamide 2,2,2-trifluoroacetate]				< 100 nM				≤ 100 nM	> 0.201	> 0.201	1.31 to 1.5	1.31 to 1.5	1.51 to 1.75	5 to 7.5	5 to 7.5	> 7.5	< 0.6	> 1
CN1CC2CC(C1)N2c1cc2c(c(C(F)(F)F)c1)CN(c1cccc([C@@](C)(F)C(F)(F)c3nncn3C)c1)C2=O [Example 566, 6-(3-Methyl-3,6-diazabicyclo[3.1.1]heptan-6-yl)-2-(3-((R)-1,1,2-trifluoro-1-(4-methyl-4H-1,2,4-triazol-3-yl)propan-2-yl)phenyl)-4-(trifluoromethyl)isoindolin-1-one]	0.101 to 0.15	1.31 to 1.5	1.51 to 1.75	< 100 nM	5 to 7.5	> 7.5	> 1	≤ 100 nM										
Cn1cnnc1[C@@H](F)C1(c2cccc(N3Cc4c(cc(CN5CCCCC5)cc4C(F)(F)F)C3=O)c2)COC1 [Example 674a, (S)-2-(3-(3-(fluoro(4-methyl-4H-1,2,4-triazol-3-yl)methyl)oxetan-3-yl)phenyl)-6-(piperidin-1-ylmethyl)-4-(trifluoromethyl)isoindolin-1-one]	0.101 to 0.15	1.31 to 1.5	1.51 to 1.75	< 100 nM	> 7.5	> 7.5	> 1	≤ 100 nM										
Cn1cnnc1C(F)(F)[C@](C)(F)c1cccc(NC(=O)c2nc3c(C(F)(F)F)cccc3[nH]2)c1 [Compound 345, (R)-N-(3-(1,1,2-trifluoro-1-(4-methyl-4H-1,2,4-triazol-3-yl)propan-2-yl)phenyl)-4-(trifluoromethyl)-1H-benzo[d]imidazole-2-carboxamide]				100 to 300 nM				≤ 300 nM	0.051 to 0.1	0.151 to 0.2	1.01 to 1.3	1.01 to 1.3	1.01 to 1.3	1.01 to 2.5	1.01 to 2.5	2.51 to 5	0.601 to 0.8	0.601 to 0.8
